# Experimental data from patent publication US9815836B2, “Macrocyclic compounds as IRAK1/4 inhibitors and uses thereof” (Merck Patent GmbH, priority 2015, dated 2017).
# Where two headings read alike, the source gives them in different places.
# Legend:
# IRAK4 = IRAK4 (Homo sapiens (Human), UniProt Q9NWZ3); assay: IRAK4 enzymatic assay (ADP-Glo luminescence); format: biochemical; settings: human purified recombinant His-TEV-IRAK4 (1-460), ATP 2 μM, STK1-biotin peptide 300 nM
# Method: IRAK4 is a human purified recombinant enzyme (His-TEV-IRAK4 (1-460)).
# In this assay, IRAK4 hydrolyses ATP, autophosphorylates and phosphorylates a Serine/Threonine generic peptidic substrate (STK: 61ST1BLC from CisBio International). Measurement of IRAK-4 inhibition is performed in 384-well format based on a luminescence assay (ADP-Glo™ Kinase Assay from Promega). Purified human recombinant IRAK4 (0.3 μg/ml) and serial diluted compounds in DMSO (range of concentration from 10 μM to 0.5 nM) or controls (1% DMSO) are incubated for 15 minutes at RT in assay buffer containing 50 mM Hepes pH 7.0, Fatty acid-free BSA 0.1%, Dithiothreitol (DTT) 2 mM, MgCl2 10 mM, EGTA 0.5 mM, Triton X-100 0.01%, MnCl2 5 mM. The kinase reaction is then initiated by the addition of ATP (2 μM) and the peptidic substrate STK1-biotin peptide (300 nM). After 2 hours of incubation at RT, the reaction is stopped and the unconsumed ATP depleted by the addition of ADP-Glo™ Reagent according to supplier instructions. After 40 minutes of incubation at RT, the Kinase Detection Reagent is then added to the assay plate according to supplier instructions. After 20 minutes of incubation at RT, the luminescence signal is measured with a plate-reading luminometer (PerkinElmer Envision or equivalent reader).
# IRAK1 = IRAK1 (Homo sapiens (Human), UniProt P51617); assay: IRAK1 enzymatic assay (ADP-Glo luminescence); format: biochemical
# Chain of IRAK1 (P51617 194-712): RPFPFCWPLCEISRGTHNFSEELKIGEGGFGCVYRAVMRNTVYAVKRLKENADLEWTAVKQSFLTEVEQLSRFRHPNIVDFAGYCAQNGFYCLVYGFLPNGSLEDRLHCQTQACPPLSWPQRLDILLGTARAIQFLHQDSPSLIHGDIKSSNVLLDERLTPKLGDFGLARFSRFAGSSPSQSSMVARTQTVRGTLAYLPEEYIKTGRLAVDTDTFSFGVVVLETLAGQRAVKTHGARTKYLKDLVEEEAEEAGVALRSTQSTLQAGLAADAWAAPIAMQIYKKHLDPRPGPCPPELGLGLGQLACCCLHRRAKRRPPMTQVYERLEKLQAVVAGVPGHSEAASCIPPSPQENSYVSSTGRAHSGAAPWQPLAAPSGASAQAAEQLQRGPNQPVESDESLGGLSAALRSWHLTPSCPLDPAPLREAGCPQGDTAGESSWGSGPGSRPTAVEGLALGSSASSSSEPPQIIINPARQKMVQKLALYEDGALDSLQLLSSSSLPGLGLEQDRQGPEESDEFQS
# Method: In this assay, IRAK1 hydrolyses ATP and autophosphorylates. Measurement of IRAK-1 inhibition is performed in 384-well format based on luminescence assay (ADP-Glo™ Kinase Assay from Promega). Purified human recombinant IRAK1 ([…]) and serial diluted compounds in DMSO (range of concentration from 10 μM to 0.5 nM) or controls (1% DMSO) are incubated for 15 minutes at RT in assay buffer containing 50 mM Hepes pH 7.0, Fatty acid-free BSA 0.1%, Dithiothreitol (DTT) 2 mM, MgCl2 10 mM, EGTA 0.5 mM, Triton X-100 0.01%. The kinase reaction is then initiated by the addition of ATP at a concentration of 1μM. After 2 hours of incubation at RT, the reaction is stopped and the unconsumed ATP depleted by the addition of ADP-Glo™ Reagent according to supplier instructions. After 40 minutes of incubation at RT, the Kinase Detection Reagent is then added to the assay plate according to supplier instructions. After 20 minutes of incubation at RT, the luminescence signal is measured with a luminometer (PerkinElmer Envision or equivalent reader).
# [1] = human purified recombinant His-TEV-IRAK1 (194-712), ATP 1 μM, read-out: IRAK1 IC50
# Chain of IRAK4 (Q9NWZ3 whole entry): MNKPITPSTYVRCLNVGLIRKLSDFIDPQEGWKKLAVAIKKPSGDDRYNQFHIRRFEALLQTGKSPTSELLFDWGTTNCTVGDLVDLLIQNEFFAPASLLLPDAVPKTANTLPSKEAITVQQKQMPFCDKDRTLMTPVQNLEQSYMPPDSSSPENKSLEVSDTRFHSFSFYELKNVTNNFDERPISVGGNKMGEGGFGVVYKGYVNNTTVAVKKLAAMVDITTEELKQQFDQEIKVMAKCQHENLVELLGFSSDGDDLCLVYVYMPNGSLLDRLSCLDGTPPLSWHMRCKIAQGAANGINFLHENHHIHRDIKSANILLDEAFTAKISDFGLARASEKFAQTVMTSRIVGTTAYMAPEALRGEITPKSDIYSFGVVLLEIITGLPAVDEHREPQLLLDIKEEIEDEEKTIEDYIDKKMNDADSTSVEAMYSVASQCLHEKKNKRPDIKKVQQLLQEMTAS
compound,measurement,setting,value
"9,10-dihydroxy-17-methyl-4,5,13,16,17,20,26-heptaazatetracyclo[20.3.1.1^2,^5.0^1^5,^1^9]heptacosa-1(25),2(27),3,15,18,22(26),23-heptaene-14,21-dione [Compound 36]",IC50,IRAK4,< 0.1 µM
"15-methyl-4,5,11,14,15,18,24-heptaazatetracyclo[18.3.1.1^2,^5.0^13,^1^7]pentacosa-1(23),2(25),3,13,16,20(24),21-heptaene-12,19-dione [Compound 2]",IC50,IRAK4,0.1 to 1 µM
"17-methyl-4,5,13,16,17,20,26-heptaazatetracyclo[20.3.1.1^2,^5.0^1^5,^1^9]heptacosa-1(25),2(27),3,15,18,22(26),23-heptaene-14,21-dione [Compound 35]",IC50,IRAK4,< 0.1 µM
"Cn1cc2c(n1)C(=O)NCCCCCCn1cc(cn1)-c1cccc(c1)C(=O)N2 [Compound 1, 16-methyl-4,5,12,15,16,19-hexaazatetracyclo[19.3.1.1^2,^5.0^1^4,^1^8]hexacosa-1(24),2(26),3,14,17,21(25),22-heptaene-13,20-dione]",IC50,IRAK1,0.1 to 1 µM
same,IC50,IRAK4,< 0.1 µM
"Cn1cc2c(n1)C(=O)NCCCCCCn1cc(cn1)-c1cccc(n1)C(=O)N2 [Compound 3, 16-methyl-4,5,12,15,16,19,25-heptaazatetracyclo[19.3.1.1^2,^5.0^1^4,^1^8]hexacosa-1(24),2(26),3,14,17,21(25),22-heptaene-13,20-dione]",IC50,IRAK1,0.1 to 1 µM
same,IC50,IRAK4,< 0.1 µM
"Cn1cc2c(n1)C(=O)NCCCCn1cc(cn1)-c1cccc(n1)C(=O)N2 [Compound 4, 4-methyl-4,5,10,13,14, 17,23-heptaazatetracyclo[17.3.1.1^2,^5.0^12,^1^6]tetracosa-1(22),2(24),3,12,15,19(23),20-heptaene-11,18-dione]",IC50,IRAK1,1 to 5 µM
same,IC50,IRAK4,1 to 5 µM
"CN1CCNC(=O)c2nn(C)cc2NC(=O)c2cccc(n2)-c2cnn(c2)CCOC1=O [Compound 5, 10,17-dimethyl-8-oxa-4,5,10,13,16,17,20,26-octaazatetracyclo[20.3.1.1^2,^5.0^1^5,^1^9]heptacosa-1(25),2(27),3,15,18,22(26),23-heptaene-9,14,21-trione]",IC50,IRAK1; [1],< 0.1 µM
same,IC50,IRAK4,< 0.1 µM
"O=C1Nc2cn(C3CCOCC3)nc2C(=O)NCCCCCn2cc(cn2)-c2cccc1c2 [Compound 6, 15-(oxan-4-yl)-4,5,11,14,15,18-hexaazatetracyclo[18.3.1.1^2,^5.0^13,^1^7]pentacosa-1(23),2(25),3,13,16,20(24),21-heptaene-12,19-dione]",IC50,IRAK1; [1],> 5 µM
same,IC50,IRAK4,> 5 µM
"Cn1cc2c(n1)C(=O)NCC1CN(CCO1)CCn1cc(cn1)-c1cccc(n1)C(=O)N2 (stereo not drawn) [Compound 7, 18-methyl-11-oxa-4,5,8,14,17,18,21,27-octaazapentacyclo[21.3.1.1^2,^5.1^8,^12.0^1^6,^2^0]nonacosa-1 (26),2(29),3,16,19,23(27),24-heptaene-15,22-dione]",IC50,IRAK1,1 to 5 µM
same,IC50,IRAK4,< 0.1 µM
"Cn1cc2c(n1)C(=O)NCC1CN(CCO1)C(=O)OCCn1cc(cn1)-c1cccc(n1)C(=O)N2 (stereo not drawn) [Compound 8, 20-methyl-8,13-dioxa-4,5,10,16,19,20,23,29-octaazapentacyclo[23.3.1.1^2,^5.1^1^0,^1^4.0^1^8,^22]hentriaconta-1(28),2(31),3,18,21,25(29),26-heptaene-9,17,24-trione]",IC50,IRAK1; [1],> 5 µM
same,IC50,IRAK4,0.1 to 1 µM
"Cn1cc2c(n1)C(=O)NCC1CCN(CCn3cc(cn3)-c3cccc(n3)C(=O)N2)C1 (stereo not drawn) [Compound 9, 17-methyl-4,5,8,13,16,17,20,26-octaazapentacyclo[20.3.1.1^2,^5.1^8,^11.0^1^5,^1^9]octacosa-1(25),2(28),3,15,18,22(26),23-heptaene-14,21-dione]",IC50,IRAK1,1 to 5 µM
same,IC50,IRAK4,< 0.1 µM
"CN1CCNC(=O)c2nn(C)cc2NC(=O)c2cccc(n2)-c2cnn(c2)CC1 [Compound 10, 8,15-dimethyl-4,5,8,11,14,15,18,24-octaazatetracyclo[18.3.1.1^2,^5.0^13,^1^7]pentacosa-1(23),2(25),3,13,16,20(24),21-heptaene-12,19-dione]",IC50,IRAK1,1 to 5 µM
same,IC50,IRAK4,0.1 to 1 µM
"CN1CCCNC(=O)c2nn(C)cc2NC(=O)c2cccc(n2)-c2cnn(c2)CC1 [Compound 11, 8,16-dimethyl-4,5,8,12,15,16,19,25-octaazatetracyclo[19.3.1.1^2,^5.0^1^4,^1^8]hexacosa-1(24),2(26),3,14,17,21(25),22-heptaene-13,20-dione]",IC50,IRAK1,1 to 5 µM
same,IC50,IRAK4,< 0.1 µM
"O=C1Nc2cn(C3CCOCC3)nc2C(=O)NCCCCCCn2cc(cn2)-c2cccc1n2 [Compound 12, 16-(oxan-4-yl)-4,5,12,15,16,19,25-heptaazatetracyclo[19.3.1.1^2,^5.0^1^4,^1^8]hexacosa-1(24),2(26),3,14,17,21 (25),22-heptaene-13,20-dione]",IC50,IRAK1,0.1 to 1 µM
same,IC50,IRAK4,< 0.1 µM
"O=C1Nc2cn(C3CCOCC3)nc2C(=O)NCCSCCCn2cc(cn2)-c2cccc1n2 [Compound 13, 6-(oxan-4-yl)-9-thia-4,5,12,15,16,19,25-heptaazatetracyclo[19.3.1.1^2,^5.0^1^4,^1^8]hexacosa-1(24),2(26),3,14,17,21(25),22-heptaene-13,20-dione]",IC50,IRAK1,0.1 to 1 µM
same,IC50,IRAK4,< 0.1 µM
"O=C1Nc2cn(C3CCOCC3)nc2C(=O)NCC[S+]([O-])CCCn2cc(cn2)-c2cccc1n2 (stereo not drawn) [Compound 14, 16-(oxan-4-yl)-9λ^4-thia-4,5,12,15,16,19,25-heptaazatetracyclo[19.3.1.1^2,^5.0^1^4,^1^8]hexacosa-1(24),2(26),3,14,17,21(25),22-heptaene-9,13,20-trione]",IC50,IRAK1,0.1 to 1 µM
same,IC50,IRAK4,< 0.1 µM
"O=C1Nc2cn(C3CCOCC3)nc2C(=O)NCCS(=O)(=O)CCCn2cc(cn2)-c2cccc1n2 [Compound 15, 16-(oxan-4-yl)-9λ^6-thia-4,5,12,15,16,19,25-heptaazatetracyclo[19.3.1.1^2,^5.0^1^4,^1^8]hexacosa-1(24),2(26),3,14,17,21(25),22-heptaene-9,9,13,20-tetrone]",IC50,IRAK1,0.1 to 1 µM
same,IC50,IRAK4,< 0.1 µM
"O=C1Nc2cn(C3CCNCC3)nc2C(=O)NCCCCCCn2cc(cn2)-c2cccc1n2 [Compound 16, 16-(piperidin-4-yl)-4,5,12,15,16,19,25-heptaazatetracyclo[19.3.1.1^2,^5.0^1^4,^1^8]hexacosa-1 (24),2(26),3,14,17,21(25),22-heptaene-13,20-dione]",IC50,IRAK1,0.1 to 1 µM
same,IC50,IRAK4,< 0.1 µM
"CS(=O)(=O)N1CCC(n2cc3c(n2)C(=O)NCCCCCCn2cc(cn2)-c2cccc(n2)C(=O)N3)CC1 [Compound 17, 6-(1-methanesulfonylpiperidin-4-yl)-4,5,12,15,16,19,25-heptaazatetracyclo[19.3.1.1^2,^5.0^1^4,^1^8]hexacosa-1(24),2(26),3,14,17,21(25),22-heptaene-13,20-dione]",IC50,IRAK1,0.1 to 1 µM
same,IC50,IRAK4,< 0.1 µM
"O=C1Nc2cn(C3CCN(C(=O)C4CC4(F)F)CC3)nc2C(=O)NCCCCCCn2cc(cn2)-c2cccc1n2 (stereo not drawn) [Compound 18, 16-[1-(2,2-difluorocyclopropanecarbonyl)piperidin-4-yl]-4,5,12,15,16,19,25-heptaazatetracyclo[19.3.1.1^2,^5.0^1^4,^1^8]hexacosa-1(24),2(26),3,14,17,21 (25),22-heptaene-13,20-dione]",IC50,IRAK1,0.1 to 1 µM
same,IC50,IRAK4,< 0.1 µM
"O=C1Nc2cn(C3CCN(C(=O)NC4CC4)CC3)nc2C(=O)NCCCCCCn2cc(cn2)-c2cccc1n2 [Compound 19, N-cyclopropyl-4-{13,20-dioxo-4,5,12,15,16,19,25-heptaazatetracyclo[19.3.1.1^2,^5.0^1^4,^1^8]hexacosa-1(24),2(26),3,14,17,21(25),22-heptaen-16-yl}piperidine-1-carboxamide]",IC50,IRAK1,0.1 to 1 µM
same,IC50,IRAK4,< 0.1 µM
"Cn1cc2c(n1)C(=O)NC1CCN(CC1O)C(=O)OCCn1cc(cn1)-c1cccc(n1)C(=O)N2 (stereo not drawn) [Compound 21, 26-hydroxy-6-methyl-22-oxa-2,5,6,9,18,19,24,30-octaazapentacyclo[22.2.2.1^11,^1^5.1^1^6,^1^9.0^4,^8]triaconta-4,7,11(30),12,14,16(29),17-heptaene-3,10,23-trione]",IC50,IRAK1,1 to 5 µM
same,IC50,IRAK4,0.1 to 1 µM
"(9E)-17-methyl-4,5,13,16, 17,20,26-heptaazatetracyclo[20.3.1.1^2,^5.0^1^5,^1^9]heptacosa-1(25),2(27),3,9,15,18,22(26),23-octaene-14,21-dione [Compound 34]",IC50,IRAK4,< 0.1 µM
